Test results taken from US7355047B2, “Substituted quinolone carboxylic acids, their derivatives, site of action, and uses thereof” (The Regents of the University of California, priority 2002, dated 2008).

How the values were obtained:
[1] = tested on: GABAA receptor complex (GRC); assay: [35S]TBPS binding dissociation, mouse forebrain; conditions: 2 nM [35S]TBPS
[2] = tested on: GABA-gated chloride channels; assay: Electrophysiological Assay 1, whole cell patch-clamp of hippocampal neurons; assay type: cell-based; conditions: C3 5 μM; GABA 10 μM; embryonic rat hippocampal neurons; FIG. 1
Experimental: Pregnant Sprague-Dawley rats, incubating embryos of 17-19 days gestation, were killed by cervical dislocation. The embryos were removed under aseptic conditions and the brains quickly excised and placed in Hank's balanced salt solution (HBSS, Gibco) at ambient room temperature (18-22° C.). The hippocampi were dissected out and chopped into fragments (˜2 mm^3) and transferred into an enzyme solution containing (in mM): NaCl 116, KCl 5.4, NaHCO3 26, NaH2PO4 1, CaCl2 1.5, MgSO4 1, EDTA 0.5, glucose 25, cysteine 1, and papain 20 U/ml (Sigma) and incubated at 37° C., 5% CO2, 100% relative humidity for 1 hr. Tissue fragments were washed in HBSS containing 1 mg/ml of bovine serum albumin (BSA) and 1 mg/ml of ovomucoid (both Sigma). Tissue was transferred into a further 3-4 ml of this solution and gently triturated into a single cell suspension using a fire-polished Pasteur pipette. The single cell suspension was layered on to 5 ml HBSS containing 10 mg/ml of BSA and 10 mg/ml of ovomucoid and centrifuged at 100× g for 10 min. […]
Agonist evoked membrane currents were recorded from hippocampal neurons using the whole cell configuration of the patch-clamp technique. […] Agonist-evoked whole cell currents were measured at their peak. Responses in the presence of drugs expressed as the arithmetic mean ±SEM of responses in the absence (control) or drugs.

[3] = target: T1, human GABAA receptors containing α1β2γ2 subunits (Homo sapiens, UniProt P14867+P18507+P47870); assay: Electrophysiology Assay 2, GABAA subunit transfected HEK cells (α1β2γ2); assay type: cell-based; conditions: expressed human α1β2γ2 receptors; versus diazepam; FIG. 2
T1 construct: expressed in transfected cells; host or cells: HEK cells
T1 sequence (P14867 28-456): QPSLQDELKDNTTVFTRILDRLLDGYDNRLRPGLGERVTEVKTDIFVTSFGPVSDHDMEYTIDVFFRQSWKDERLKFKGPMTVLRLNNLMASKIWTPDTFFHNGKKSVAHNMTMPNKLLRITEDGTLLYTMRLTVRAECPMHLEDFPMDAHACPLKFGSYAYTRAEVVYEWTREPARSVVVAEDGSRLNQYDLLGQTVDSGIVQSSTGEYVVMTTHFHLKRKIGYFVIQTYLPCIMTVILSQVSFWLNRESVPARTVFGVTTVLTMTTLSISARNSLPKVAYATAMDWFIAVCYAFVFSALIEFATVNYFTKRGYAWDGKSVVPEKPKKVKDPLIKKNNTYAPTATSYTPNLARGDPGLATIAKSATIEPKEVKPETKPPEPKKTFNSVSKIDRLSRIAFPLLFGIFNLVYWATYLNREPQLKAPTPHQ
T1 sequence (P47870 25-512 limits assumed): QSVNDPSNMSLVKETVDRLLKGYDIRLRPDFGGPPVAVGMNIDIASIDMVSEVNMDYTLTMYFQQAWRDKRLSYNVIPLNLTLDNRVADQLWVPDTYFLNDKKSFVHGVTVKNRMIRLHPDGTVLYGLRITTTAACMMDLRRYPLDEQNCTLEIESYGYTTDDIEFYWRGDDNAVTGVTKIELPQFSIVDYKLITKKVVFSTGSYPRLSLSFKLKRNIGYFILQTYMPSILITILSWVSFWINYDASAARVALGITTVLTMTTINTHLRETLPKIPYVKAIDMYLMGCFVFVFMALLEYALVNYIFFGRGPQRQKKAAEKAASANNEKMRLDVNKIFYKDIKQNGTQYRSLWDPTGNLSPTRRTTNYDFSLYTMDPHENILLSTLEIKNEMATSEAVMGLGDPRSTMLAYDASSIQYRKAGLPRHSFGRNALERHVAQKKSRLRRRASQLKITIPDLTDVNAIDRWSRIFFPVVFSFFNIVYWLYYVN
T1 sequence (P18507 40-475): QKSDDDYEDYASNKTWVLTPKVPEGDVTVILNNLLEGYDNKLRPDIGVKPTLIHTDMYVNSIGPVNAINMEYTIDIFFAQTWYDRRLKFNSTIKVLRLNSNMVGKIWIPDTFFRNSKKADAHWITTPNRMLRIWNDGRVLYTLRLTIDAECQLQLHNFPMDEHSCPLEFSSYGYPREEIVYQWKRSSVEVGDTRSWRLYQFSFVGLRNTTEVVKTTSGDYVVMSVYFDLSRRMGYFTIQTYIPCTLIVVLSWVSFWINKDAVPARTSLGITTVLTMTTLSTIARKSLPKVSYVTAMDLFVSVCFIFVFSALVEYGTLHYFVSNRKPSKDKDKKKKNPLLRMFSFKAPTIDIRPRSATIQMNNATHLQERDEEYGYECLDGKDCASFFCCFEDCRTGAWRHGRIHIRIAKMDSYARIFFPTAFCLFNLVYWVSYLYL
Experimental: (§1) GABAA subunit transfected HEK cells are maintained at 37° C. and 5% CO2 using Dulbecco's Modified Eagle's Medium with L-glutamine and no sodium pyruvate (Irvine Scientific #9031, Irvine Calif.) and supplemented with 10% fetal bovine serum (Irvine Scientific #3000), 10 U/ml hygromycin B (Calbiochem #400051), and an antibiotic cocktail consisting of 100 μg/ml streptomycin sulfate, 0.25 μg/ml amphotericin B, 100 units/ml penicillin G (Gibco 15240-096, Gaithersburg Md.). Cells are passed by 2× wash with phosphate buffered saline (PBS) pH 7.4 and lifted using 1× trypsin/EDTA solution in PBS (0.5 mg/ml trypsin, 0.2 mg/ml EDTA, Irvine Scientific #9342) when confluency reaches ˜90%.
(§2) GABAA subunit transfected HEK cells are grown to ˜70% confluency on slide. Cells are transferred to a bath that is continuously perfused with extracellular saline. The extracellular medium contained 145 mM NaCl, 3 mM KCl, 1.5 mM CaCl2, 1 mM MgCl2, 5.5 mM d-glucose, and 10 mM HEPES, pH 7.4 at an osmolarity of 320-330 mosM. Recordings are performed at room temperature using the whole cell patch clamp technique. The patch pipette solution contained 147 mM N-methyl-D-glucamine hydrochloride, 5 mM CsCl, 5 mM K2ATP, 5 mM HEPES, 1 mM MgCl2, 0.1 mM CaCl2, and 1.1 mM EGTA, pH 7.2, at an osmolarity of 315 mosM. Pipette-to-bath resistance is typically 3-5 Mohms. […]

[4] = target: T2, human GABAA receptors containing α2β2γ2 subunits (Homo sapiens, UniProt P18507+P47869+P47870); assay: Electrophysiology Assay 2, GABAA subunit transfected HEK cells (α2β2γ2); assay type: cell-based; conditions: expressed human α2β2γ2 receptors; versus diazepam; FIG. 2
T2 construct: expressed in transfected cells; host or cells: HEK cells
T2 sequence (P47869 29-451): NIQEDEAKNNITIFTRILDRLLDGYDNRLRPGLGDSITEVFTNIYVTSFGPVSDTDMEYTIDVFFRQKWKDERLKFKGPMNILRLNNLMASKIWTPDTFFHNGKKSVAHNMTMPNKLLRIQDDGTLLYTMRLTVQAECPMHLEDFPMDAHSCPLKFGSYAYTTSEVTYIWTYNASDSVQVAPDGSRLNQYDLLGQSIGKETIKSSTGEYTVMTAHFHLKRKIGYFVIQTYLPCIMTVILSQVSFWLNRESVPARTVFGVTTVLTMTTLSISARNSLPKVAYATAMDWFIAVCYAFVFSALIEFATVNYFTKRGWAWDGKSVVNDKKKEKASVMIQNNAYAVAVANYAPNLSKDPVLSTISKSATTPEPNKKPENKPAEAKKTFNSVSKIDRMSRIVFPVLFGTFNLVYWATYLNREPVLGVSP
T2 sequence (P47870 25-512 limits assumed): as the sequence (P47870 25-512 limits assumed) above
T2 sequence (P18507 40-475): as the sequence (P18507 40-475) above
Experimental: as §1, §2

[5] = tested on: GABAA receptor complex (GRC); assay: [35S]TBPS binding, rat cerebellum; conditions: 2 nM [35S]TBPS, 30 μM furosemide, FIG. 14

SMILES: CCn1cc(C(=O)O)c(=O)c2cc(NC3CCCc4ccccc43)c(Cl)cc21 (stereo not drawn) [compound 3, 7-chloro-1-ethyl-6-(1,2,3,4-tetrahydronaphthyl-1-amino)-4-oxo-1,4-dihydroquinoline-3-carboxylic acid]
- dissociation of [35S]TBPS binding in absence or presence of ivermectin ([1]; initiated by 10 μM compound 3, 10 μM ivermectin, FIG. 12): do not share a common site of action
- dissociation of [35S]TBPS binding in absence or presence of mefenamic acid ([1]; initiated by 10 μM compound 3, 10 μM mefenamic acid, FIG. 13): do not share a common site of action
- potentiating effect on GABA induced chloride currents [2]: positive efficacy modulator of GABA-gated chloride channels
- efficacy on GABA induced currents (IGABA) [3]: dose-dependent positive efficacy
- efficacy on GABA induced currents (IGABA) [4]: dose-dependent positive efficacy
- effect on [35S]TBPS binding in absence or presence of furosemide [5]: does not act directly at the same site on the GRC as the loop-diuretic furosemide
